Measured values published in US9630957B2, “2,3-butanediamide epoxide compound and preparation method and use thereof” (Institute of Pharmacology and Toxicology Academy of …, priority 2014, dated 2017).
Converted amounts (≈) assume the structure as drawn.

Columns and labels:
Vero cells = assay: Cytotoxicity of the compounds for Vero cells (CPE observation, TC50); format: cell-based; conditions: no virus
Method: (§1) 2. Sample treatment: the compounds of the present invention are dissolved in DMSO or diluent to prepare stock solution which is stored at −20° C. The stock solution is formulated to suitable incipient concentration with culture solution immediately before use, and then 3-fold diluted with the culture solution, 8 degrees of dilution each.
(§2) 4. Test Method: Vero cells are seeded into a 96-well culture plate, at 5% CO2, and cultured at 37° C. for 16 hours. The Vero cells are added with different dilutions of drugs, and the degree of cytopathic effect (CPE) in each group is observed. The half toxic concentration (TC50) of each sample for Vero cells is calculated. Vero cells are added with 100TCID50 enterovirus EV71 respectively, and the virus solution is discarded after adsorption at 37° C. for 1 hour, and then drugs with various degrees of dilution are added respectively. Virus control and cell control are set and incubated at 37° C. The degree of cytopathic effect (CPE) in each group is observed when the degree of cytopathic effect (CPE) of virus control group reaches 4+. The half inhibitory concentration (IC50) of each sample for enterovirus EV71 are calculated. Selectivity Index (SI) is calculated according to the following equation: SI=TC50/IC50.

[1] = tested on: enterovirus EV71 (BrCr strain); assay: Activity screening for anti-enterovirus EV71: inhibition of cytopathic effect in Vero cells; format: cell-based; conditions: for IC50: 100TCID50, Vero cells, CPE read when virus control reaches 4+, read-out: IC50 (half inhibitory concentration for enterovirus EV71); for SI (Selectivity Index = TC50/IC50): Vero cells
Method: Test item: Activity screening of the compounds for anti-enterovirus EV71
Test principle: Vero cells are used as viral host. The inhibition of the compound of the invention on the degree of cytopathic effect of Vero cells caused by enterovirus virus EV71 is determined.
1. Virus strain: enterovirus EV71 (BrCr, American Type Culture Collection, ATCC)
as §1
3. Positive control drug: Pirodavir (LGM Pharma), which is a broad-spectrum anti-viral inhibitor.
as §2

In the case of `O=C(Nc1ccc(F)cc1)[C@H]1O[C@@H]1C(=O)N(Cc1ccccc1)c1ccccc1` [Compound 5, (2S,3S)—N^2-benzyl-N^2-phenyl-N^3-(4-fluorophenyl)-2,3-epoxybutanediamide], the “TC50 (half toxic concentration for Vero cells)” value (Vero cells) is reported as 10.68 µg/mL, the IC50 [1] is reported as 2.47 µg/mL (≈ 6.33 µM) and the “SI (Selectivity Index = TC50/IC50)” value [1] is reported as 4.32. It also gave a melting point of 153.8 to 154.7 °C.
For `O=C(Nc1cccc(F)c1)[C@H]1O[C@@H]1C(=O)N(Cc1ccccc1)c1ccccc1` [Compound 4, (2S,3S)—N^2-benzyl-N^2-phenyl-N^3-(3-fluorophenyl)-2,3-epoxybutanediamide], the “TC50 (half toxic concentration for Vero cells)” value (Vero cells) was 7.41 µg/mL, the IC50 [1] was 2.47 µg/mL (≈ 6.33 µM) and the “SI (Selectivity Index = TC50/IC50)” value [1] was 3.00. It also gave a melting point of 180.5 to 182 °C.
For `O=C(Nc1cccc(Br)c1)[C@H]1O[C@@H]1C(=O)N(Cc1ccccc1)c1ccccc1` [Compound 14, (2S,3S)—N^2-benzyl-N^2-phenyl-N^3-(3-bromophenyl)-2,3-epoxybutanediamide], the “TC50 (half toxic concentration for Vero cells)” value (Vero cells) was 12.83 µg/mL, the IC50 [1] was 1.43 µg/mL (≈ 3.17 µM) and the “SI (Selectivity Index = TC50/IC50)” value [1] was 8.97. The melting point was 177.5 to 178.2 °C.
For `O=C(Nc1nc2ccccc2s1)c1ccc(N(Cc2ccc(F)cc2)C(=O)[C@H]2O[C@@H]2C(=O)Nc2ccc(Cl)cc2Cl)cc1` [Compound 26, (2S,3S)—N^2-(4-(benzo[d]thiazol-2-ylcarbamoyl)phenyl)-N^3-(2,4-dichlorophenyl)-N^2-(4-fluorobenzyl)-2,3-epoxybutanediamide], the “TC50 (half toxic concentration for Vero cells)” value (Vero cells) was 1.43 µg/mL, the IC50 [1] was > 0.82 µg/mL and the melting point was 206.7 to 207.5 °C.
